Each structure is given as a SMILES string. Bounds are passed on as bounds.

These results are taken from a melting point compilation (Tetko et al.; mined from patent text by program, amines drawn as free bases though some values may be those of a salt).

With `Cc1cc(N(C)C)nc(N)n1`, the melting point (as a rule, the temperature of the solid-liquid transition) was in the range of 172 to 174 °C.
Consider `CC(C(=O)CCl)c1ccc(-c2ccccc2)c(F)c1` (centres undefined), for which the melting point was in the range of 57 to 59 °C.
Turning to `CCC(=O)NNC(=O)C(=O)NC1CC(C)(C)NC(C)(C)C1`, the melting point lay in the range of 221 to 225 °C.
`O=[N+]([O-])c1ccc(OCCCN2CCC(C(O)(c3ccc(F)cc3)c3ccc(F)cc3)CC2)cc1` registered a melting point of 93.5 to 94.5 °C.
For the compound `COC(=O)CC(Sc1cc(C(C)(C)C)c(O)c(C(C)(C)C)c1)C(=O)OC` (centres undefined), the melting point was in the range of 94 to 96 °C.
In the case of `Cn1cncc1C(O)(c1ccc(-c2ccc(Cl)cc2)cc1)c1ccc2c(c1)c(-c1cccc(Cl)c1)cc(=O)n2C` (centres undefined) it was 236 °C.
In the case of `CCCC(=O)c1cccc2cc[nH]c12` it was 67.2 to 68.2 °C.
For `O=C1C(O)=C(Br)C(=O)c2ccc(F)cc21`, the melting point worked out at 183 °C.
In the case of `CN(C)Cc1cc(C(C)(C)c2cc(CN(C)C)c(O)c(CN(C)C)c2)cc(CN(C)C)c1O`, the melting point lay in the range of 88 to 90 °C.
`O=C(Nc1cc(Cl)cc(Cl)c1O)C(=O)Nc1ncc(Cl)cc1Cl` gave a melting point of 245 °C.
Compound `c1ccc2c(c1)CCN(Cc1n[nH]c3c1CCc1ccccc1-3)C2` showed a melting point of 180 to 182 °C.
`CC1CC(c2ccccc2)(N(C)C)CCC1=O` (centres undefined) registered a melting point of 50 °C.
Compound `CC1CC(c2c(S(C)(=O)=O)ccc(C(=O)c3cnn(C)c3O)c2Cl)=NO1` (centres undefined) returned a melting point of 230 to 235 °C.
`Cc1nc2cccc(OCC(C)(C)C(=O)NC(C)C)c2c(N)c1C(=O)O` gave a melting point of 216 to 218 °C.
On to `ClCCN(CCCl)CCCCOc1cccc(Nc2c3ccccc3nc3c(OCCN(CCCl)CCCl)cccc23)c1`, for which the melting point was in the range of 95 to 96 °C.
`O=S1(=O)NC(C2CCCC2)Nc2ccc(S(=O)(=O)N3CCCCC3)cc21` (centres undefined) registered a melting point of 258 to 260 °C.
Compound `CC1(C)OC[C@H](c2cnc(NC(=O)C(C)(C)C)cn2)O1` came in with a melting point of 142 to 143 °C.
For `Cc1c(C)c(N2CCN(c3ncccn3)CC2)c(C)c2c1OC(C)(C)C2`, the melting point lay in the range of 145 to 147 °C.
For the compound `Cc1cc(C(C)(C)C)c(O)c(S(=O)(=O)Nc2ccc([N+](=O)[O-])cc2Cl)c1`, the melting point is 239 to 243 °C.
Consider `O=c1c2c(c3cccnc3n1-c1ccccc1)N(c1ccccc1)CC2`, for which the melting point lay within 220 to 222 °C.
The compound `Cc1ccc2c(c1)c(Cc1nc3cc(C(F)(F)F)ccc3s1)cn2CC(=O)O` displayed a melting point of 248 to 249 °C.
In the case of `CCOC(=O)N1CCN(c2ccc(C3=NNC(=O)CC3C)cc2F)CC1` (centres undefined), the melting point lay within 193 to 194 °C.
Consider `CCOCc1nc2c(N)nc3cc(-c4ccc(Cl)c(Cl)c4)cnc3c2n1CC(C)(C)O`, for which the melting point lay within 144 to 147 °C.
`Cc1cc(OCc2ccccc2)nc(S(C)(=O)=O)n1` showed a melting point of 57 to 60 °C.
Regarding `Cc1cc(C#N)ccc1-c1cccc(C=O)c1`, the melting point lay within 86 to 86.5 °C.
In turn, `CC(=O)Oc1ccc(N2CCN(C(C)=O)CC2)c(Br)c1` had a melting point of 75 °C.
`CCCCCCCCCCCCCCCCCCC(CO)CC1(C)OCCO1` (centres undefined) registered a melting point of 34 to 35 °C.
In turn, `CC12CC3(C)CC(c4ccc(O)cc4)(C1)CC(c1ccc(O)cc1)(C2)C3` yielded a melting point of 222 to 224 °C.
With `CC1(C)CCC(C)(C)c2cc(-c3ccc(O)cc3)ccc21`, the melting point lay within 137 to 140 °C.
In the case of `CCCC1CCCN(C(=O)C2Cc3ccccc3N2c2ccc(=O)n(C)n2)C1` (centres undefined) it was 106 to 110 °C.
On to `COc1cc(OC)c2c(=O)[nH]c(-c3ccc(OCCO)c(OC)c3)nc2c1`, for which the melting point fell in the range of 246 to 248 °C.
For `CC(=O)N1CCC(C(=O)N[C@@H](CC(C)C)C(=O)N[C@@H](C(C)C)[C@@H](O)c2c(-c3ccccc3)c2=O)CC1`, the melting point was in the range of 120 to 124 °C.
In turn, `Cn1cncc1C(O)(c1cccc(I)c1)c1ccc2c(c1)c(-c1cccc(Cl)c1)cc(=O)n2C` (centres undefined) had a melting point of 226 °C.
The compound `COc1cc2c(cc1S(=O)(=O)Cl)CCN(C(C)=O)CC2` registered a melting point of 153 to 160 °C.
In turn, `CC1(C)Oc2ccc(C#N)cc2[C@@H](NC(=O)Nc2cccc(CC(=O)O)c2)[C@@H]1O` showed a melting point of 135 to 138 °C.
Compound `CCCCCCCCCCCCCCCC(=O)C(O)(O)C(=O)OC(C)(C)C` displayed a melting point of 49 to 51 °C.
As for `COc1ccc2c(c1F)CSCC2=O`, the melting point lay in the range of 85 to 92 °C.
`N#CC(=Cc1ccc(O)c(O)c1)C(=O)Nc1ccccc1`: the melting point came to 258 °C.
Consider `COc1cc(C#N)c2c(c1OC)C(=O)CC2`, for which the melting point was 150 °C.
The result for `Nc1cc(F)cc(F)c1NC(=S)Nc1c(Cl)cccc1Cl` reads 310 to 314 °C.
For `O=c1c2ccccc2sc2ccc(S(=O)(=O)C(F)(F)F)cc12`, the melting point lay within 163 to 164 °C.
`Cc1cc(SCc2ccc(-c3ccc(C(F)(F)F)cc3)cc2)ccc1OCC(=O)O` returned a melting point of 140 to 141 °C.
The result for `O=c1c(-c2cccc(F)c2)coc2cc(O)c(O)cc12` reads 277 °C; that for `CONC(=O)C(C)c1ccc2cc(OCc3ccc4ccccc4n3)ccc2c1` (centres undefined), 162 to 164 °C.
`CCCCn1c(C)c(C)cc(O)c1=O` returned a melting point of 112 to 116 °C.
`Cc1ccc(C#N)c(Nc2ccccc2[N+](=O)[O-])c1`: the melting point lay in the range of 162 to 164 °C.
`Clc1nc2cc(Br)c(Br)cc2[nH]1` displayed a melting point of 228 °C.
For the compound `CCC(=O)c1[nH]c2cc(Cl)ccc2c1NC(C)=O`, the melting point was > 270 °C.
In the case of `Cc1cccc(N(CCO)Cc2ccc3nc(N)n(Cc4nc(C)ccc4O)c3c2)c1` it was 210 °C; in that of `O=C1CN=C(c2ccccc2Br)c2cc(F)ccc2N1`, 194 to 196 °C.
In turn, `COc1ccc2cc(C#N)c(=O)oc2c1C` returned a melting point of 215 °C.
In the case of `CC1(C)CC(=O)c2c(C3CCCCC3)sc(-c3nccs3)c2C1` it was 101 to 103 °C; in that of `O=C1N(Cc2ccc(F)cc2)Cc2cncn2C1(Cc1ccccc1)c1ccc(Br)cc1` (centres undefined), 166 to 168 °C; in that of `CC(C)(C)OC(=O)Nc1cc(N2CCOCC2)c(C#Cc2ccccc2)cc1[N+](=O)[O-]`, 190 to 191 °C.
`CC(=O)Nc1cc(NS(=O)(=O)CCl)c(Cl)cc1F` registered a melting point of 210 °C.
The result for `O=C1CCCCC1c1ccc(F)cc1` (centres undefined) reads 56 to 59 °C; that for `O=C(Nc1cccc(C(F)(F)F)c1)C12CC3CC(CC(C3)C1)C2`, 171 to 174 °C; that for `O=C(O)CCNC1CCCN(c2ccc3c(C(=O)NCC45CC6CC(CC(C6)C4)C5)c(Cl)ccc3n2)C1` (centres undefined), 176 to 189 °C.
`O=CNCC1CCN(C(c2ccccc2)c2ccccc2)CC1` registered a melting point of 125 °C.
On to `O=c1c2cccnc2c(-c2ccccc2)nn1-c1ccccc1`, for which the melting point lay within 174 to 176 °C.
Compound `COC(=O)C(Cc1ccccc1)Oc1ccc2cc(-c3cnc(Cc4ccccc4)o3)ccc2c1` (centres undefined) gave a melting point of 88 to 90 °C.
As for `CC(=O)CCc1ccc(C(=O)c2ccc(Cl)cc2)cc1`, the melting point lay within 91 to 92 °C.
Compound `COc1ccc(-c2ccc(Cl)nn2)c(O)c1` registered a melting point of 156 to 157 °C.
In the case of `O=S(=O)(CCCc1nc(-c2ccc(F)cc2)c(-c2ccncc2)[nH]1)c1ccccc1` it was 109 to 110 °C.
